Article PMC4596473 (PLoS ONE, 2015)
“Also recorded” adds a separate entry of the source. Like-named read-outs stand apart in the source and are kept apart here. Values belong to the compound of their own block, whether it stands above or below them.

Assays:
[1] = human, in vivo, po
Experimental: (§1) The plasma concentrations of luseogliflozin and its metabolites were determined by two separate methods at JCL Bioassay Corp. (Hyogo, Japan). Luseogliflozin, its metabolites and its deuterium-labeled internal standard (luseogliflozin-d5, M2-d5 and M17-d5, Taisho Pharmaceutical Co. Ltd., Japan) were extracted from plasma by solid phase extraction. Extracts were analysed by LC-MS/MS. The lower limit of quantification (LLOQ) for luseogliflozin and its metabolites (M2 and M17) in plasma were 0.05 and 0.1 ng/mL, respectively. […] Extracts were analysed by LC-MS/MS. […] Summary statistics were provided for the pharmacokinetic parameters by treatment group.

[2] = tested on: SGLT2; conditions: read-out: 50% inhibitory concentration (IC50); SGLT2, human expressing cells, nonclinical study; cited from earlier work
[3] = clinical; conditions: human, in vivo, po
Experimental: as §1

[4] = tested on: human ether-a-go-go-related gene (hERG) current; assay: hERG current in hERG-transfected HEK293 cells in vitro; type: cell-based; conditions: versus Cmax of a 5 mg dose in diabetic subjects in a clinical study
Source text: In non-clinical studies, effects of luseogliflozin on the cardiovascular system were investigated via the human ether-a-go-go-related gene (hERG) current in hERG-transfected human embryonic kidney cells (HEK293 cells) in vitro; action potential in the papillary muscle of anesthetized guinea pigs; and blood pressure, heart rate, and electrocardiogram (ECG) in conscious beagle dogs.

[5] = tested on: papillary muscle of anesthetized guinea pigs; conditions: non-clinical study; cited from earlier work
[6] = tested on: human ether-a-go-go-related gene (hERG) current; conditions: at 9.6 μmol/L; non-clinical study; cited from earlier work
[7] = tested on: healthy Japanese subjects; assay: Thorough QT/QTc study: 12-lead ECG assessment of QTcF/QTcB; type: in vivo, human; conditions: for Upper bound of the 90% two-sided CI of the least squares mean ΔΔQTcB: all time points, data not shown; for Upper bound of the 90% two-sided CI for the least squares mean ΔΔQTcF: single dose, all time points 0.5-24 h post-dose; for Least squares mean ΔΔQTcF: moxifloxacin 400 mg single dose
Experimental: The study was conducted at Kitasato Institute Hospital (Tokyo, Japan) from July 6th 2011 to September 15th 2011. […] All treatments were administered with 200 mL of water after at least 10-hour overnight fast, and no food was allowed until 4 hours after dosing. All treatments were administered in a randomized sequence. The random assignment manager randomly assigned treatment groups using the Williams Design to determine the order of treatments within each treatment sequence by the time of study drug administration to the first admission group. A randomization code was created for each treatment sequence sealed and securely retained until unblinding and were provided to the sponsor after unblinding.
Serial triplicate digital 12-lead electrocardiograms (ECGs) were recorded over 5 min in the supine position after resting for 10 min for each time point (pre-dose [50–70 min before dosing], 0.5, 1, 2, 3, 4, 6, 8, and 24 h post-dose) using an electrocardiograph (ELI250, Mortara). The same model of 12-lead digital surface ECG monitor was employed for all subjects at all time points. The same lead was used throughout the study. The interval between the start of each recording was ≥1 min, and ECG was recorded for 10 s for each chart. All 12-lead ECG charts for QT/QTc analysis were sent electronically to the central ECG analysis facility. RR and QT intervals were measured in accordance with the procedures of the facility. The time of recording and subject identification information were blinded before measurement. QTc intervals were corrected by Fridericia’s (QTcF = QT/RR^1/3) and Bazett’s (QTcB = QT/RR^1/2) formulae. QTcF was the primary endpoint, and QTcB was the secondary endpoint.
Treatment comparisons between luseogliflozin therapeutic dose or supratherapeutic dose and placebo (ΔΔQTc) were analyzed using a linear mixed model with treatment, sequence, period, scheduled time, and the interaction of treatment with scheduled time as fixed effects, subject as a random effect, and baseline QTc as a covariate. The effect of luseogliflozin on QT/QTc interval prolongation was regarded as negative when the upper bound of the 90% two-sided confidence interval (CI) for the mean effect on the QT/QTc interval […] 10 ms at all time points in the luseogliflozin groups.
A categorical analysis was also performed. New onset of QTc greater than 450, 480, or 500 ms after dosing or change from baseline in QTc greater than 30 or 60 ms was categorized in each treatment group.

[8] = tested on: healthy Japanese subjects; assay: Safety assessment (adverse events, vital signs, ECG, laboratory tests); type: in vivo, human; conditions: for Tolerability: single dose of luseogliflozin 5 mg and 20 mg
Source text: Safety assessments included recording of adverse events, vital signs (body temperature, blood pressure, and pulse rate), physical examinations, ECGs, and clinical laboratory tests.

[9] = tested on: dogs; conditions: 52-week repeated dose; cited from earlier work
[10] = tested on: SGLT1; conditions: read-out: 50% inhibitory concentration (IC50); SGLT1, human expressing cells, nonclinical study; cited from earlier work
[11] = cited from earlier work
[12] = tested on: conscious beagle dogs; conditions: non-clinical study; cited from earlier work
[13] = tested on: rats; conditions: 26-week repeated dose; cited from earlier work
[14] = tested on: Japanese patients with type 2 diabetes mellitus; conditions: cited from earlier work
[15] = luseogliflozin 20 mg (supratherapeutic dose)
[16] = TS-071 25 mg single oral dose, healthy adult males, ref Investigator's Brochure of TS-071 (Version 6)

- AUCinf ([1]; 5 mg): 120 ± 41.9 ng·h/mL
- Cmax ([1]; 5 mg): 6.02 ± 2.10 ng/mL
- T1/2 ([1]; 5 mg): 10.9 ± 1.49 h
- Tmax ([1]; 5 mg): 4.89 ± 1.14 h
- AUCinf ([1]; 20 mg): 487 ± 196 ng·h/mL
- Cmax ([1]; 20 mg): 24.3 ± 9.98 ng/mL
- T1/2 ([1]; 20 mg): 10.9 ± 1.71 h
- Tmax ([1]; 20 mg): 5.13 ± 1.14 h
SMILES: COc1cc(C)c(Cc2ccc(OCC(=O)O)cc2)cc1[C@@H]1S[C@H](CO)[C@@H](O)[C@H](O)[C@H]1O [M17]

- AUCinf ([1]; 5 mg): 257 ± 48.3 ng·h/mL
- Cmax ([1]; 5 mg): 8.85 ± 1.95 ng/mL
- T1/2 ([1]; 5 mg): 13.8 ± 2.61 h
- Tmax ([1]; 5 mg): 5.71 ± 2.14 h
- AUCinf ([1]; 20 mg): 1030 ± 212 ng·h/mL
- Cmax ([1]; 20 mg): 35.1 ± 7.36 ng/mL
- T1/2 ([1]; 20 mg): 13.9 ± 2.53 h
- Tmax ([1]; 20 mg): 5.83 ± 1.90 h
SMILES: COc1cc(C)c(Cc2ccc(O)cc2)cc1[C@@H]1S[C@H](CO)[C@@H](O)[C@H](O)[C@H]1O [M2]

- AUC(0-inf) ([3]; 5 mg): 2110 ± 418 ng·h/mL
- Cmax ([3]; 5 mg): 209 ± 48.9 ng/mL
- half-life ([3]; 5 mg): 10 ± 1.18 h
- Tmax ([3]; 5 mg): 1.3 h
- AUC(0-inf) ([3]; 20 mg): 8650 ± 1780 ng·h/mL
- Cmax ([3]; 20 mg): 787 ± 186 ng/mL
- Tmax ([3]; 20 mg): 1.5 ± 0.961 h
- Tmax ([1]; 5 mg): 1.34 ± 0.935 h
- T1/2 ([1]; 20 mg): 9.90 ± 1.22 h
SMILES: CCOc1ccc(Cc2cc([C@@H]3S[C@H](CO)[C@@H](O)[C@H](O)[C@H]3O)c(OC)cc2C)cc1 [Luseogliflozin, (1S)-1,5-anhydro-1-[5-(4-ethoxybenzyl)-2-methoxy-4-methylphenyl]-1-thio-D-glucitol]
- IC50 [2]: 2.26 nM
- Ratio of hERG test concentration (9.6 μmol/L) to the maximum observed Cmax [4]: approximately 370 times
- Effect on the cardiovascular system [5]: No effect
- Suppression of hERG current [6]: 7.7%
- Upper bound of the 90% two-sided CI of the least squares mean ΔΔQTcB ([7]; luseogliflozin 5 mg (anticipated therapeutic dose)): < 10 ms
- Upper bound of the 90% two-sided CI for the least squares mean ΔΔQTcF ([7]; luseogliflozin 5 mg (therapeutic dose)): less than 10 ms
- Correlation between ΔΔQTcF and plasma concentration of unchanged compound ([7]; luseogliflozin 5 mg and 20 mg): No meaningful correlation; also recorded: no relationship
- Hysteresis of mean ΔΔQTcF versus mean plasma concentration ([7]; luseogliflozin 5 mg and 20 mg): no clear hysteresis effect
- Number (%) of Subjects, QTcF Increase >30 ms from baseline ([7]; luseogliflozin 5 mg, n = 56): 0 (0.0) n (%)
- Number (%) of Subjects, QTcF Increase >60 ms from baseline ([7]; luseogliflozin 5 mg, n = 56): 0 (0.0) n (%)
- Number (%) of Subjects, QTcF Value >450 ms ([7]; luseogliflozin 5 mg, n = 56): 1 (1.8) n (%)
- Number (%) of Subjects, QTcF Value >480 ms ([7]; luseogliflozin 5 mg, n = 56): 0 (0.0) n (%)
- Number (%) of Subjects, QTcF Value >500 ms ([7]; luseogliflozin 5 mg, n = 56): 0 (0.0) n (%)
- Upper bound of the 90% two-sided CI for the least squares mean ΔΔQTcF [7, 15]: less than 10 ms
- Upper bound of the 90% two-sided CI of the least squares mean ΔΔQTcB [7, 15]: < 10 ms
- Number (%) of Subjects, QTcF Increase >30 ms from baseline ([7]; luseogliflozin 20 mg, n = 53): 0 (0.0) n (%)
- Number (%) of Subjects, QTcF Increase >60 ms from baseline ([7]; luseogliflozin 20 mg, n = 53): 0 (0.0) n (%)
- Number (%) of Subjects, QTcF Value >450 ms ([7]; luseogliflozin 20 mg, n = 53): 0 (0.0) n (%)
- Number (%) of Subjects, QTcF Value >480 ms ([7]; luseogliflozin 20 mg, n = 53): 0 (0.0) n (%)
- Number (%) of Subjects, QTcF Value >500 ms ([7]; luseogliflozin 20 mg, n = 53): 0 (0.0) n (%)
- Adverse events moderate in severity, number of events ([8]; 5 mg luseogliflozin group): two
- Subjects with first-degree atrioventricular block ([8]; 5 mg luseogliflozin group): one
- Prolonged PR interval in the subject with first-degree atrioventricular block ([8]; 48 h after administration of luseogliflozin 5 mg, one subject): 452 ms
- Relation of cardiovascular adverse events to the study drug ([8]; after administration of luseogliflozin): not related to the study drug
- Percentage of subjects with an adverse event ([8]; luseogliflozin 5 mg group): 41.1%
- AEs, n (number of events) ([8]; luseogliflozin 5 mg, n = 56): 48 n
- Drug-related AEs, n (number of events) ([8]; luseogliflozin 5 mg, n = 56): 20 n
- Percentage of subjects with an adverse event ([8]; luseogliflozin 20 mg group): 35.8%
- AEs, n (number of events) ([8]; luseogliflozin 20 mg, n = 53): 32 n
- Drug-related AEs, n (number of events) ([8]; luseogliflozin 20 mg, n = 53): 16 n
- Tolerability [8]: well tolerated
- Tolerability ([8]; listed as luseogliflozin): safe and well tolerated
- Dose levels with diarrhoea or soft stools [9]: ≥ 10 mg/kg
- No observed adverse effect level [9]: 2 mg/kg
- IC50 [10]: 2900 nM
- Mean Tmax ([11]; TS-071 15 mg single oral dose, healthy adult males, ref Investigator's Brochure of TS-071 (Version 6)): 1.56 h
- Mean T1/2 [11, 16]: 12.6 h
- Mean Tmax [11, 16]: 2.25 h
- Time to maximum plasma concentration (Tmax) ([11]; single dose 1–25 mg): ≤ 2.25 h
- Effect on the cardiovascular system [12]: No effect
- Dose levels with diarrhoea or soft stools [13]: ≥ 100 mg/kg
- No observed adverse effect level [13]: 4 mg/kg
- Urinary glucose excretion in comparison to placebo ([14]; 0.5, 1, 2.5 and 5 mg/day, Japanese patients with type 2 diabetes mellitus): significantly increased
- Observed Cmax of unchanged TS-071 ([14]; Day 7, 7-day repeated administration of 5 mg, patients with type 2 diabetes): 299 ng/mL

- AUC(0-inf) ([3]; 400 mg): 60000 ± 11100 ng·h/mL
- Cmax ([3]; 400 mg): 3880 ± 939 ng/mL
- Tmax ([3]; 400 mg): 2.2 h
- Tmax ([1]; 400 mg): 2.19 ± 1.09 h
SMILES: COc1c(N2C[C@@H]3CCCN[C@@H]3C2)c(F)cc2c(=O)c(C(=O)O)cn(C3CC3)c12 [Moxifloxacin, moxifloxacin, reference compound]
- Correlation between ΔΔQTcF and plasma concentration of unchanged compound ([7]; moxifloxacin 400 mg): positive relationship; also recorded: positive correlation
- Hysteresis of mean ΔΔQTcF versus mean plasma concentration ([7]; moxifloxacin 400 mg): counter-clockwise hysteresis effect; also recorded: counterclockwise hysteresis
- Least squares mean ΔΔQTcF ([7]; 3 and 4 hour post-dose): 13.4 ms
- Least squares mean ΔΔQTcF ([7]; 24 h post-dose): 7.7 ms
- Number (%) of Subjects, QTcF Increase >30 ms from baseline ([7]; moxifloxacin 400 mg, n = 54): 0 (0.0) n (%)
- Number (%) of Subjects, QTcF Increase >60 ms from baseline ([7]; moxifloxacin 400 mg, n = 54): 0 (0.0) n (%)
- Number (%) of Subjects, QTcF Value >450 ms ([7]; moxifloxacin 400 mg, n = 54): 7 (13.0) n (%)
- Number (%) of Subjects, QTcF Value >480 ms ([7]; moxifloxacin 400 mg, n = 54): 0 (0.0) n (%)
- Number (%) of Subjects, QTcF Value >500 ms ([7]; moxifloxacin 400 mg, n = 54): 0 (0.0) n (%)
- Number (%) of Subjects, QTcF Value >450 ms ([7]; moxifloxacin 400 mg, n = 54, listed as moxifloxacin): 7 n (%)
- Regression of ΔΔQTcF (msec) on plasma concentration (μg/mL) ([7]; moxifloxacin 400 mg, text in Fig 6): ΔΔQTcF = 3.42+3.03xConc.
- Percentage of subjects with an adverse event ([8]; moxifloxacin 400 mg group): 72.2%
- AEs, n (number of events) ([8]; moxifloxacin 400 mg, n = 54): 56 n
- Drug-related AEs, n (number of events) ([8]; moxifloxacin 400 mg, n = 54): 36 n
